The values that follow are results of earlier work, collected in patent US20200397820A1, “Glycerol Release Promoter” (KOHAKU BIO TECHNOLOGY CO., LTD., priority 2018, published 2020).

Structures are written as SMILES.

The series has as its system cultured adipocytes. Conditions: Patent Literature 10.

As to `C[C@@]12C[C@@]3(O)O[C@@H](O1)[C@]1(COC(=O)c4ccccc4)[C@H]3C[C@@]12O[C@@H]1O[C@H](CO)[C@@H](O)[C@H](O)[C@H]1O` [Paeoniflorin], the “release of glycerol into the culture medium” value is recorded as “promotes the release of glycerol”.
